Columns and labels:
[1] = Fluorescence spectra and fluorescence quantum yield in MeOH; assay type: physicochemical
Method: The absorption spectra of (oxidopyridyl)porphyrins were recorded in HPLC grade MeOH on a Cary UV 60 (Agilent Technologies, Santa Clara, CA, USA), in a wavelength range of 300–700 nm. The fluorescence spectra in HPLC grade MeOH were recorded on a Cary Eclipse (Agilent Technologies) in a wavelength range of 500–800 nm after excitation at the Soret band wavelength (λ ~ 420 nm). The slits of the spectrometer were set to a bandpass of 5 nm for the excitation and 5 nm for the emission. To calculate the fluorescence quantum yields, the measurements were conducted on an FS5 Edinburgh Instruments spectrometer. Prior to taking the measurements, the solutions were purged with high-purity N2 for at least 15 min. The absorbance of the solutions was set to A < 0.1 at 405 nm and 550 nm, which settings were used for the excitation process. Emission was recorded from 550 to 800 nm, with slits set to the bandpass corresponding to 2 nm for the excitation, and 3 nm for the emission. Fluorescence quantum yield (ΦFL) was calculated in comparison to the tetraphenylporphyrin (TPP; ΦFL = 0.11 [23]) as a standard, according to Equation (S1) and following an equation previously described elsewhere.

[2] = Laser flash photolysis (LFP), triplet excited state properties; assay type: physicochemical; conditions: MeOH
Method: Laser flash photolysis (LFP) was performed using an LP980 transient absorption spectrometer (Edinburgh Instruments) equipped with a continuous beam (or pulse mode) Xenon lamp passing through the sample. A nanosecond Nd:YAG laser (Quantel, Q-smart 450, 5 ns pulse duration, 10 Hz, excitation wavelength 355 nm) was then used to excite the sample perpendicular to the lamp beam. The laser beam energy was adjusted to below 5 mJ. The ground state absorbance of the porphyrins in MeOH was adjusted to 0.20–0.25 at 355 nm (the laser excitation wavelength) and the solutions were purged with high-purity N2 for at least 15 min prior to taking the measurements. The samples were prepared for kq determination in an air atmosphere that was N2-purged for 15 min and O2-purged for 15 min before the measurements were taken. The ground state absorption spectra of the samples were also recorded after purging the sample with N2 or O2, and after transient absorption (TAS) measurements were taken to track the differences in every step of the measurement process to ensure that no photoproducts were formed. All measurements were performed at 25 °C in 1 cm quartz cuvettes. Laser flash photolysis was used to measure the kinetics of triplet state depopulation (τT) and triplet-triplet absorption spectra, and to calculate the intersystem crossing quantum yield (ΦISC) and quenching rate constants of triplet excited states by molecular oxygen (kq). To calculate ΦISC, the first step was the calculation of the molar absorption coefficient of the triplet state using the singlet depletion method, completing the first step according to Equation (S2). The ΦISC values were estimated by using a comparative method with TPP (ΦISC = 0.87 in toluene) as the standard. The ΦISC was calculated according to Equation (S3). Triplet excited state lifetimes were determined by fitting the triplet decays to the equation for the mixed first- and second-order decay, as previously described, and the quenching rate constant of a triplet excited state by molecular oxygen was calculated using the Stern–Volmer equation (Equation (S4)).

- Stokes shift [1]: 2 nm
- ΦFL (fluorescence quantum yield) ([1]; N2-purged, TPP as reference): 0.047 ± 0.002
- λFL Q(0,0) ([1]; excitation at Soret band): 648 nm
- λFL Q(0,1) ([1]; excitation at Soret band): 713 nm
- τT (lifetime of 3PS*) [2]: 0.96 ms
- t from transient absorption kinetics at 450 nm ([2]; N2, 355 nm laser excitation, Figure S9 inset): 987 µs
- τT (lifetime of the triplet excited state) ([2]; N2-purged, 25 °C): 960 ± 30 μs
- kq (O2) (quenching rate constant of the triplet excited state by O2) ([2]; Stern–Volmer): 1.4e+09 M⁻¹ s⁻¹
- ΦISC (quantum yield of intersystem crossing) ([2]; comparative method with TPP, estimated): 0.51
- εT-T (molar absorption coefficient of the triplet state) ([2]; singlet depletion method): 58 300 M^−1cm^−1
Compound: CCCCCCCCCCCCCCCCCC(=O)Nc1ccc(-c2c3nc(c(-c4ccc[n+]([O-])c4)c4ccc([nH]4)c(-c4ccc[n+]([O-])c4)c4nc(c(-c5ccc[n+]([O-])c5)c5ccc2[nH]5)C=C4)C=C3)cc1 [TOPyP3-C17H35, 5-(4-Octadecanamidophenyl)-10,15,20-tris(1-oxido-3-pyridyl)porphyrin]

Source: paper PMC12382614, “(Oxidopyridyl)Porphyrins of Different Lipophilicity: Photophysical Properties, ROS Production and Phototoxicity on Melanoma Cells Under CoCl2-Induced Hypoxia” (Antioxidants, 2025)
